Like-named read-outs stand apart in the source and are kept apart here.
Experiments:
[1] = biological target: T1, HCV polymerase 1B (Δ21 NS5B, BK) (Hepatitis C virus genotype 1b, UniProt P26663); experiment: biochemical
T1 construct: 20 to 50 nM Δ21 NS5B
In short: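 Δ21 NS5B (genotype 1b, BK […]) preincubated 15 min RT with inhibitor, 2 mM MnCl2, pH 7.4, 60–125 μM GTP; started with 20 μM CTP/ATP, 1 μM 3H-UTP, 5 nM template RNA, run 2–4 h RT. Spermine-precipitated RNA filter-captured, scintillation counted; IC50 from tight-binding (Morrison) fit.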

[2] = biological target: T2, HCV polymerase 1A (Δ21 NS5B, H77) (Hepatitis C virus genotype 1a, UniProt P27958); experiment: biochemical
T2 construct: 20 to 50 nM Δ21 NS5B
In short: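 Radiometric assay with Δ21 NS5B (H77): 20 μM CTP, 20 μM ATP, 1 μM ^3H-UTP, 5 nM template RNA, 2–4 h at room temperature. RNA precipitated with spermine, filter-captured and counted. IC50 from non-linear fit of retained cpm vs inhibitor concentration (tight-binding equation).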

[3] = test system: genotype 1a-H77 subgenomic replicon cell line; experiment: microbe, parasite or virus in culture; format: cell-based, HCV; details: read-out: EC50 1a
[4] = test system: genotype 1b-Con1 subgenomic replicon cell line; experiment: microbe, parasite or virus in culture; format: cell-based, HCV; details: read-out: EC50 1b

T2 sequence (P27958 2421-2990, stated change not applied): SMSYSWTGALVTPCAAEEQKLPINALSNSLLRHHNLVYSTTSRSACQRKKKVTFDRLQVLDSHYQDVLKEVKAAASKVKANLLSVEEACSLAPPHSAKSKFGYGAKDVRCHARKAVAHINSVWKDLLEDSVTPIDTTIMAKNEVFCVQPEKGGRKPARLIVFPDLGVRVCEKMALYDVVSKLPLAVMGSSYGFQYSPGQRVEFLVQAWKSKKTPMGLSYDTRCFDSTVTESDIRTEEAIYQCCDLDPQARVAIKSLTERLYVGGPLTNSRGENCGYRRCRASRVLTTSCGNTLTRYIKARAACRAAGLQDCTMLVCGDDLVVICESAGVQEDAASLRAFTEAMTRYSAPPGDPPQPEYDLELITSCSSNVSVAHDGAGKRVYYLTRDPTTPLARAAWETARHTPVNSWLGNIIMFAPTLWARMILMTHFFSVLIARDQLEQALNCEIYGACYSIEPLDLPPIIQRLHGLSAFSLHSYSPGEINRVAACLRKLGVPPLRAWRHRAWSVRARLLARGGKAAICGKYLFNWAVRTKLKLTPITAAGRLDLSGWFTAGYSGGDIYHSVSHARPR
T1 sequence (P26663 2420-2989, stated change not applied): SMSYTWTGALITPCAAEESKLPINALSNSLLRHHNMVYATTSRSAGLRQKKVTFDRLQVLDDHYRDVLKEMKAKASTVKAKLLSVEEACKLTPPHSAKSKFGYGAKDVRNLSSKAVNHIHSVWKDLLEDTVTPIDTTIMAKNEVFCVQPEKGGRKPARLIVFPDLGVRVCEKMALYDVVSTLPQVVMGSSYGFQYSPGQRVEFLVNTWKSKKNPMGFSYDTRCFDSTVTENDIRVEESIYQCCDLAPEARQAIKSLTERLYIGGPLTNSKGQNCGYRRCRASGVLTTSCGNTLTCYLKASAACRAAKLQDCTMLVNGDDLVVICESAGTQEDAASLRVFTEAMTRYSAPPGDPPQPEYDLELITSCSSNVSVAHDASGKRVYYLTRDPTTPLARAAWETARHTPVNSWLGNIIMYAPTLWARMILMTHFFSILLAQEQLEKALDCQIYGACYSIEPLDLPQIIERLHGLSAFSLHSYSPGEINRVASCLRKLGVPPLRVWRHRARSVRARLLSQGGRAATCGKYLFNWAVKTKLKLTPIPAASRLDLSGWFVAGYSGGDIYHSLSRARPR

Compound	IC50 [1]	IC50 ([2]; IC50 1a)	EC50 ([3]; Hepatitis C virus)	EC50 ([4]; Hepatitis C virus)	IC50 ([1]; HCV polymerase 1b, read-out: IC50 1b)	IC50 ([2]; read-out: IC50 1a)	EC50 ([3]; genotype 1a-H77 replicon, luciferase reporter)	EC50 ([4]; genotype 1b-Con1 replicon, luciferase reporter)
COc1c(-c2ccc3c(c2)CCC3(F)CNS(C)(=O)=O)cc(-n2ccc(=O)[nH]c2=O)cc1C(C)(C)C (centres unmarked) [IB-L0-2.12, N-((5-(3-tert-butyl-5-(2,4-dioxo-3,4-dihydropyrimidin-1(2H)-yl)-2-methoxyphenyl)-1-fluoro-2,3-dihydro-1H-inden-1-yl)methyl)methanesulfonamide]	10 to 100 nM	< 10 nM	10 to 100 nM	< 10 nM	–	–	–	–
COc1c(C#Cc2ccc(NS(C)(=O)=O)cc2F)cc(N2CCC(=O)NC2=O)cc1C(C)(C)C [IA-L2-1.12, N-(4-((3-tert-butyl-5-(2,4-dioxotetrahydropyrimidin-1(2H)-yl)-2-methoxyphenyl)ethynyl)-3-fluorophenyl)methanesulfonamide]	< 10 nM	< 10 nM	10 to 100 nM	< 10 nM	–	–	–	–
COc1c(-c2cccc(/C=N/NS(C)(=O)=O)c2)cc(N2CCC(=O)NC2=O)cc1C(C)(C)C [IA-L0-1.7, (E)-N′-((3′-tert-butyl-5′-(2,4-dioxotetrahydropyrimidin-1(2H)-yl)-2′-methoxybiphenyl-3-yl)methylene)methanesulfonohydrazide]	100 to 1000 nM	> 1000 nM	> 1000 nM	> 1000 nM	–	–	–	–
COc1c(-c2ccc3c(c2)CCC3NS(C)(=O)=O)cc(-n2ccc(=O)[nH]c2=O)cc1C(C)(C)C (centres unmarked) [IB-L0-2.44, N-(5-(3-tert-butyl-5-(2,4-dioxo-3,4-dihydropyrimidin-1(2H)-yl)-2-methoxyphenyl)-2,3-dihydro-1H-inden-1-yl)methanesulfonamide]	100 to 1000 nM	100 to 1000 nM	> 1000 nM	> 1000 nM	–	–	–	–
CC(C)(C)c1cc(C#Cc2ccc(NS(C)(=O)=O)cc2)cc(N2CCC(=O)NC2=O)c1 [IA-L2-1.1, N-(4-((3-tert-butyl-5-(2,4-dioxotetrahydropyrimidin-1(2H)-yl)phenyl)ethynyl)phenyl)-methanesulfonamide]	< 10 nM	10 to 100 nM	100 to 1000 nM	10 to 100 nM	–	–	–	–
COc1c(C(=O)Nc2ccc(NS(=O)(=O)c3ccccc3)cc2)cc(N2CCC(=O)NC2=O)cc1C(C)(C)C [IA-L3-1.60, 3-tert-butyl-5-(2,4-dioxotetrahydropyrimidin-1(2H)-yl)-2-methoxy-N-(4-(phenylsulfonamido)phenyl)benzamide]	10 to 100 nM	10 to 100 nM	100 to 1000 nM	10 to 100 nM	–	–	–	–
COc1c(-c2cccc(/C(C)=N/NS(C)(=O)=O)c2)cc(-n2ccc(=O)[nH]c2=O)cc1C(C)(C)C [IB-L0-1.9, (E)-N′-(1-(3′-tert-butyl-5′-(2,4-dioxo-3,4-dihydropyrimidin-1(2H)-yl)-2′-methoxybiphenyl-3-yl)ethylidene)methanesulfonohydrazide]	100 to 1000 nM	100 to 1000 nM	> 1000 nM	> 1000 nM	–	–	–	–
COc1c(-c2ccc(NS(C)(=O)=O)cc2)cc(-n2ccc(=O)[nH]c2=O)cc1C(C)(C)C [IB-L0-1.2, N-(3′-tert-butyl-5′-(2,4-dioxo-3,4-dihydropyrimidin-1(2H)-yl)-2′-methoxybiphenyl-4-yl)methanesulfonamide]	100 to 1000 nM	100 to 1000 nM	> 1000 nM	> 1000 nM	–	–	–	–
COc1c(C#Cc2ncc(NS(C)(=O)=O)cc2C)cc(N2CCC(=O)NC2=O)cc1C(C)(C)C [IA-L2-1.24, N-(6-((3-tert-butyl-5-(2,4-dioxotetrahydropyrimidin-1(2H)-yl)-2-methoxyphenyl)ethynyl)-5-methylpyridin-3-yl)methanesulfonamide]	10 to 100 nM	< 10 nM	100 to 1000 nM	10 to 100 nM	–	–	–	–
COc1c(C(=O)Nc2ccc(N)cc2)cc(N2CCC(=O)NC2=O)cc1C(C)(C)C [IA-L3-1.107, N-(4-aminophenyl)-3-tert-butyl-5-(2,4-dioxotetrahydropyrimidin-1(2H)-yl)-2-methoxy benzamide]	> 1000 nM	> 1000 nM	> 1000 nM	> 1000 nM	–	–	–	–
COc1c(C#Cc2ccc(NS(C)(=O)=O)c(OC(F)(F)F)c2)cc(N2CCC(=O)NC2=O)cc1C(C)(C)C [IA-L2-1.17, N-(4-((3-tert-butyl-5-(2,4-dioxotetrahydropyrimidin-1(2H)-yl)-2-methoxyphenyl)ethynyl)-2-(trifluoromethoxy)phenyl)methanesulfonamide]	10 to 100 nM	10 to 100 nM	100 to 1000 nM	10 to 100 nM	–	–	–	–
COc1c(C#Cc2cccc(NS(C)(=O)=O)c2)cc(N2CCC(=O)NC2=O)cc1C(C)(C)C [IA-L2-1.7, N-(3-((3-tert-butyl-5-(2,4-dioxotetrahydropyrimidin-1(2H)-yl)-2-methoxyphenyl)ethynyl)phenyl)methanesulfonamide]	10 to 100 nM	10 to 100 nM	> 1000 nM	100 to 1000 nM	–	–	–	–
COc1c(-c2ccc3c(c2)CC=C3CNS(C)(=O)=O)cc(-n2ccc(=O)[nH]c2=O)cc1-c1cccs1 [IB-L0-2.63, N-((6-(5-(2,4-dioxo-3,4-dihydropyrimidin-1(2H)-yl)-2-methoxy-3-(thiophen-2-yl)phenyl)-1H-inden-3-yl)methyl)methanesulfonamide]	10 to 100 nM	10 to 100 nM	100 to 1000 nM	10 to 100 nM	–	–	–	–
CC(C)(C)c1cc(N2CCC(=O)NC2=O)cc(C(=O)Nc2ccc(NS(=O)(=O)CC(F)(F)F)cc2)c1O [IA-L3-1.9, 3-tert-butyl-5-(2,4-dioxotetrahydropyrimidin-1(2H)-yl)-2-hydroxy-N-(4-(2,2,2-trifluoroethylsulfonamido)phenyl)benzamide]	10 to 100 nM	100 to 1000 nM	> 1000 nM	> 1000 nM	–	–	–	–
CC(C)(C)c1cc(C(=O)Nc2ccc(NS(C)(=O)=O)cc2)cc(N2CCC(=O)NC2=O)c1 [IA-L3-1.105, 3-tert-butyl-5-(2,4-dioxotetrahydropyrimidin-1(2H)-yl)-N-(4-(methylsulfonamido)phenyl)benzamide]	10 to 100 nM	100 to 1000 nM	> 1000 nM	> 1000 nM	–	–	–	–
CC(C)(C)c1cc(N2CCC(=O)NC2=O)cc(C(=O)Nc2ccc(NS(=O)(=O)Cc3ccccc3)cc2)c1O [IA-L3-1.12, 3-tert-butyl-5-(2,4-dioxotetrahydropyrimidin-1(2H)-yl)-2-hydroxy-N-(4-(phenylmethyl-sulfonamido)phenyl)benzamide]	10 to 100 nM	100 to 1000 nM	> 1000 nM	> 1000 nM	–	–	–	–
CCCC(=O)OCN(c1ccc(NC(=O)c2cc(N3CCC(=O)NC3=O)cc(C(C)(C)C)c2OC)cc1)S(C)(=O)=O [IA-L3-1.123, (N-(4-(3-tert-butyl-5-(2,4-dioxotetrahydropyrimidin-1(2H)-yl)-2-methoxybenzamido)phenyl)methylsulfonamido)methyl butyrate]	> 1000 nM	> 1000 nM	100 to 1000 nM	10 to 100 nM	–	–	–	–
COc1c(-c2ccc(/C(C)=N/NS(C)(=O)=O)cc2)cc(N2CCC(=O)NC2=O)cc1C(C)(C)C [IA-L0-1.2, (E)-N′-(1-(3′-tert-butyl-5′-(2,4-dioxotetrahydropyrimidin-1(2H)-yl)-2′-methoxybiphenyl-4-yl)ethylidene)methanesulfonohydrazide]	10 to 100 nM	10 to 100 nM	100 to 1000 nM	10 to 100 nM	–	–	–	–
COc1cc(NS(C)(=O)=O)ccc1/C=C/c1cc(N2CCC(=O)NC2=O)cc(C(C)(C)C)c1OC [IA-L1-1.27, N-(4-{(E)-2-[3-tert-Butyl-5-(dioxo-tetrahydro-pyrimidin-1-yl)-2-methoxy-phenyl]-vinyl}-3-methoxy-phenyl)-methanesulfonamide]	–	–	–	–	10 to 100 nM	< 10 nM	10 to 100 nM	< 10 nM
COc1c(C#Cc2ccc(NS(C)(=O)=O)cc2O)cc(-n2ccc(=O)[nH]c2=O)cc1C(C)(C)C [IB-L2-1.6, N-(4-((3-tert-butyl-5-(2,4-dioxo-3,4-dihydropyrimidin-1(2H)-yl)-2-methoxyphenyl)ethynyl)-3-hydroxyphenyl)fmethanesulfonamide]	10 to 100 nM	< 10 nM	10 to 100 nM	< 10 nM	–	–	–	–
CC(C)(C)c1cc(N2CCC(=O)NC2=O)cc(C(=O)Nc2cccc(CNS(C)(=O)=O)c2)c1O [IA-L3-1.11, 3-tert-butyl-5-(2,4-dioxotetrahydropyrimidin-1(2H)-yl)-2-hydroxy-N-(3-(methylsulfon-amidomethyl)phenyl)benzamide]	100 to 1000 nM	> 1000 nM	> 1000 nM	> 1000 nM	–	–	–	–
CC(C)(C)c1cc(N2CCC(=O)NC2=O)cc(C(=O)Nc2ccccc2)c1O [IA-L3-1.3, 3-tert-butyl-5-(2,4-dioxotetrahydropyrimidin-1(2H)-yl)-2-hydroxy-N-phenylbenzamide]	100 to 1000 nM	> 1000 nM	> 1000 nM	> 1000 nM	–	–	–	–
COc1c(C#Cc2ccc(NS(C)(=O)=O)cc2)cc(N2CCC(=O)NC2=O)cc1C1CC1 [IA-L2-1.23, N-(4-((3-cyclopropyl-5-(2,4-dioxotetrahydropyrimidin-1(2H)-yl)-2-methoxyphenyl)ethynyl)phenyl)methanesulfonamide]	100 to 1000 nM	100 to 1000 nM	> 1000 nM	100 to 1000 nM	–	–	–	–
